In PMC9506044, “Identification of Protosappanoside D from Caesalpinia decapetala and Evaluation of Its Pharmacokinetic, Metabolism and Pharmacological Activity” (Molecules, 2022):
Entries after “also recorded” stand apart in the source; their conditions may differ. Read-outs that look alike come from different tables or passages of the source.

Key:
[1] = Metabolites identification in rat plasma (UHPLC/Q Exactive Plus MS); format: in vivo, Sprague-Dawley rats; conditions: PTD 27.3 mg/kg by gavage twice daily for 3 d, 2 h after last administration
Experimental: To investigate the PTD metabolites, Sprague-Dawley rats were randomly divided into two groups with six rats in each group. PTD was continuously administered by gavage twice daily for 3 d at a dose of 27.3 mg/kg. Blood was collected from the rat femoral artery 2 h after the last administration, centrifuged at 6000 rpm at 4 °C for 6 min, and 100 μL of plasma was separated and frozen at −20 °C until analysis.
Qualitative analysis of metabolites was conducted on a Vanquish horizon (Thermo Scientific, Waltham, MA, USA) and combined with a Q Exactive Plus Orbitrap MS (QE Plus, Thermo Scientific, USA) system. The separation of PTD and its metabolites was achieved on a Hypersil gold column (2.1 × 150 mm, i.d., 1.9 μm). The mobile phase consisted of water containing 0.1% formic acid (B) and acetonitrile containing 0.1% formic acid (A). The gradient elution program was set as follows: 0–2 min, 5% A; 2–3 min, 5~25% A; 3–6 min, 25~40% A; 6–13 min, 40~95% A; 13–14 min, 95~95% A; 14–15 min, 95~5% A; 15–18 min, 5~5% A; flow rate, 0.3 mL/min. The MS unit parameters were set as follows: the range of data acquisition was 150–1000 m/z, electrospray voltage was 2.5 kV(−), 3.5 kV(+), solvent removal gas flow rate was 8 L/min, and desolvent gas temperature was 320 °C. Acquisition and processing were conducted using the Xcalibur 4.2 software (Thermo Fisher Scientific, USA) and Compound Discoverer 3.2 (Thermo, USA).
A 600 μL aliquot of each plasma sample was transferred into a 5 mL centrifuge tube, 300 μL of 2% formic acid solution and 2.4 mL of methanol was added before vortexing for 2 min. This was followed by sonication in an ultrasonic machine for 10 min, and centrifugation at 13,225× g for 10 min. The supernatant was then placed in a centrifuge tube and evaporated to dryness under a stream of nitrogen at 37 °C. The residues were dissolved in 200 μL of 50% methanol and centrifuged at 13,225× g for 10 min, and 1 μL of the solution was injected into the QE system.

[2] = system: LPS-stimulated RAW264.7 cells; experiment: Secretion of TNF-α, IL-1β and IL-6 by LPS-induced RAW264.7 cells (ELISA); format: cell-based; conditions: 200 μmol/L, LPS 1 μg/mL, 24 h, compared to the model group
Experimental: (§1) RAW264.7 cells, obtained from American Type Culture Collection (ATCC, Manassas, VA, USA), were cultured in Dulbecco’s modified Eagle’s medium (DMEM) (Life Technologies, Grand Island, NY, USA) supplemented with 10% fetal bovine serum (FBS) and 1% penicillin-streptomycin (Grand Island, NY, USA). The cultures were incubated at 37 °C in a humidified atmosphere containing 5% CO2.
RAW264.7 cells (1 × 10^5 cells/well in a 96-well plate) were treated with PTD, PTB (200 μmol/L) and stimulated by LPS (1 μg/mL) for 24 h. As a positive control, the impacts of Dex on LPS-induced RAW264.7 cells were also determined parallelly. The supernatants were then collected, and the accumulated NO level was determined using Griess reagent. The concentrations of TNF-α, IL-6 and IL-1β in conditioned media were measured using enzyme-linked immunosorbent assay (ELISA) according to the supplier’s instructions.

[3] = Stability of the analytes in rat plasma under various storage conditions; format: in vitro ADME
Experimental: The stability of analytes in rat plasma was assessed using QC samples at low, medium and high concentrations (n = 5 for each concentration level) under three conditions: (1) at room temperature for 24 h; (2) refrigerated at 4 °C for 24 h; and (3) three freeze-thaw cycles.

RAW264.7 cells = experiment: MTS cell viability assay on RAW264.7 cells; format: cell-based; conditions: 24 h treatment
Experimental: as §1
Cell viability was determined using the MTS cell viability assay kit. RAW264.7 cells were cultured at a density of 1 × 10^5 cells per well in 96-well plates by the treatment with various concentrations of PTD and PTB, respectively. After 24 h, 5 µL MTS was added to each well and incubated for 3 h. The plates were then read at 490 nm using a microplate reader.

[4] = Pharmacokinetic study in rats after oral and intravenous administration of PTD (UPLC-MS/MS, plasma); format: in vivo; conditions: Sprague-Dawley; for AUC(0-inf) / AUC(0-t) / Cmax / MRT last / MRT inf / half-life / Tmax: rat plasma; for MRT last: read-out: MRT(0–t); for MRT inf: read-out: MRT(0–∞); for half-life: read-out: t1/2z (converted)
Experimental: Specific pathogen-free Sprague-Dawley rats (230 ± 10 g) were purchased from Changsha Tianqin Biotechnology Co., Ltd. (Changsha, China; certificate no. SCXK (Xiang) 2014-0010). Before starting the experiments, the rats were allowed one week of acclimatization in the animal quarters under air conditioning (25 ± 1 °C) and an automatically controlled photoperiod of 12 h of light daily. They were fed with standard rodent chow and tap water ad libitum. Rats were fasted for 12 h before the start of the experiment but were free to drink water. All experiments were approved by the Animal Ethics Committee of Guizhou Medical University and conducted in accordance with the guidelines of the Committee on the Care and Use of Laboratory Animals in China.
For the pharmacokinetic study, 12 rats were randomly divided into two groups, with 6 rats in each group. In the oral administration group, PTD was intragastrically administered to the rats at a dose of 27.3 mg/kg. For intravenous administration, PTD was injected at a dose of 9.1 mg/kg via the tail vein. Blood samples (0.3 mL) were collected directly from the caudal vein using anticoagulant centrifugal tubes at 0.083, 0.167, 0.33, 0.5, 0.75, 1, 1.5, 2, 4, 6, 9, 12 and 24 h after intravenous and oral administration, respectively. The blood sample was centrifuged at 6000 rpm for 6 min, and the supernatant plasma was transferred into a new clean tube and stored at −80 °C prior to further use.
The UPLC-MS/MS system consisted of an ACQUITY I-Class UPLC system and an XEVO TQ-S triple-quadrupole tandem mass spectrometer (Waters Corp., Milford, MA, USA) equipped with an ESI source. Chromatographic separation was performed using a UPLC BEN C18 column (2.1 × 50 mm, […]; Waters Corp., Milford, MA, USA) at 40 °C. The mobile phase consisted of water containing 0.2% formic acid (B) and acetonitrile containing 0.2% formic acid (A) delivered at 0.3 mL/min as a gradient as follows: 0–0.5 min, 10% A; 0.5–3 min, 90% A; 3–4 min, 90% A; 4–4.5 min, 10% A; 4.5–5 min, 10% A. Waters XEVO TQ-S triple-quadrupole mass spectrometer equipped with an ESI source was used for the mass analysis and detection. The main working parameters were set as follows: source temperature, 120 °C; desolvation temperature, 350 °C; and nebuliser gas (N2), 650 L/h. The scan time for all analytes was set at 0.2 s and acquisition and processing were conducted on a Micromass Masslynx4.1.
A 100 μL aliquot of each plasma sample was transferred into a 1.5 mL centrifuge tube, and 50 μL of 2% formic acid solution was added before vortexing for 30 s. Subsequently, the internal standard (IS) (50 μL of 20 ng/mL puerarin) and 400 μL of methanol were added and vortexed for 1 min. For subsequent treatment methods were the same as mentioned in the above section (4.7.1); finally, 1 μL of the solution was injected into the UPLC-MS/MS system.
Compound discoverer 3.2 was used for the analysis of metabolites of PTD; WinNonlin was used for the analysis of pharmacokinetic parameters, and Graphpad 8.2 was used for the illustrations. Data are expressed as mean ± SD. Statistical analysis was performed using the Statistical Product and Service Solutions software package (SPSS 22.0, SPSS Inc., Chicago, IL, USA). The results were analyzed using one-way ANOVA and bioavailability (F) was calculated according to the equation reported in He et al..

[5] = po, intragastric administration of PTD 27.3 mg/kg
[6] = rat, plasma, po, 27.3 mg/kg, intragastric administration of PTD 27.3 mg/kg
[7] = intravenous administration of PTD 9.1 mg/kg

Row | SMILES | Identification (metabolic pathway from PTD) [1] | secretion of IL-1β [2] | secretion of IL-6 [2] | secretion of TNF-α [2] | concentration with no cytotoxicity to RAW264.7 cells (RAW264.7 cells) | AUC(0-inf) [4, 5] [ng·h/mL] | AUC(0-t) [4, 5] [ng·h/mL] | Cmax [4, 5] [ng/mL] | MRT last [4, 5] [h] | MRT inf [4, 5] [h] | half-life [4, 5] [min] | Tmax [4, 6] [min] | AUC(0-inf) [4, 7] [ng·h/mL] | AUC(0-t) [4, 7] [ng·h/mL] | MRT last [4, 7] [h] | MRT inf [4, 7] [h] | half-life [4, 7] [min] | also measured
1 | COC1=CC=C(c2cc(O)c(O)cc2C#CC=O)C(=O)C1 [M3] | Dealkylation, Dehydration, Desaturation | – | – | – | – | – | – | – | – | – | – | – | – | – | – | – | – | –
2 | OCC1OC(Oc2ccc3c(c2)OCC(O)(CO)Cc2cc(O)c(O)cc2-3)C(O)C(O)C1O [PTD, protosappanin B-3-O-β-D-glucoside] | – | downregulate; also recorded: significantly reduced; also recorded: significantly downregulated | downregulate; also recorded: significantly reduced; also recorded: significantly downregulated | downregulate; also recorded: significantly reduced; also recorded: significantly downregulated | below 200 μmol/L | 405 ± 224 | 382 ± 211 | 250 ± 176 | 3.06 ± 0.63 | 4.15 ± 1.09 | 208 ± 46.8 | ~29.4 | 19700 | 19400 | 1.8 ± 0.5 | 2.4 ± 0.83 | 219 ± 75.6 | Measured Concentration (Mean ± SD) ([3]; 4 °C for 24 h, nominal 5.01 ng/mL): 4.96 ± 0.65 ng/mL; Measured Concentration (Mean ± SD) ([3]; 4 °C for 24 h, nominal 250.5 ng/mL): 236.32 ± 13.98 ng/mL; Measured Concentration (Mean ± SD) ([3]; 4 °C for 24 h, nominal 15,030 ng/mL): 15,122.74 ± 959.18 ng/mL; Measured Concentration (Mean ± SD) ([3]; Room temperature for 24 h, nominal 5.01 ng/mL): 5.61 ± 0.32 ng/mL; Measured Concentration (Mean ± SD) ([3]; Room temperature for 24 h, nominal 250.5 ng/mL): 241.97 ± 8.73 ng/mL; Measured Concentration (Mean ± SD) ([3]; Room temperature for 24 h, nominal 15,030 ng/mL): 15,135.44 ± 1324.59 ng/mL; Measured Concentration (Mean ± SD) ([3]; three freeze-thaw cycles, nominal 5.01 ng/mL): 5.23 ± 0.58 ng/mL; Measured Concentration (Mean ± SD) ([3]; three freeze-thaw cycles, nominal 250.5 ng/mL): 260.48 ± 17.36 ng/mL; Measured Concentration (Mean ± SD) ([3]; three freeze-thaw cycles, nominal 15,030 ng/mL): 14,844.73 ± 346.61 ng/mL; bioavailability ([4]; rat, plasma, oral, 27.3 mg/kg, rat, oral 27.3 mg/kg vs intravenous 9.1 mg/kg): 0.65%
3 | COc1ccc2c(c1)OC(CO)=Cc1cc(O)c(O)cc1-2 [M2] | Dealkylation, Dehydration | – | – | – | – | – | – | – | – | – | – | – | – | – | – | – | – | –
4 | OCC1(O)COc2cc(O)ccc2-c2cc(O)c(O)cc2C1 (stereo not shown) [PTB, protosappanin B, reference compound] | desugarization | significantly reduced; also recorded: significantly downregulated | significantly reduced; also recorded: significantly downregulated | significantly reduced; also recorded: significantly downregulated | below 300 μmol/L | 204 ± 43.9 | 179 ± 45 | 31.1 ± 10.5 | 7.41 ± 0.77 | 11.1 ± 2.32 | 467 ± 95.4 | 85.2 ± 29.4 | 230 ± 71.9 | 202 ± 59.5 | 6.45 ± 2.15 | 10.5 ± 3.88 | 407 ± 161 | Measured Concentration (Mean ± SD) ([3]; 4 °C for 24 h, nominal 2.51 ng/mL): 2.32 ± 0.11 ng/mL; Measured Concentration (Mean ± SD) ([3]; 4 °C for 24 h, nominal 20.08 ng/mL): 24.62 ± 1.12 ng/mL; Measured Concentration (Mean ± SD) ([3]; 4 °C for 24 h, nominal 251 ng/mL): 223.94 ± 15.73 ng/mL; Measured Concentration (Mean ± SD) ([3]; Room temperature for 24 h, nominal 2.51 ng/mL): 2.17 ± 0.13 ng/mL; Measured Concentration (Mean ± SD) ([3]; Room temperature for 24 h, nominal 20.08 ng/mL): 21.81 ± 1.46 ng/mL; Measured Concentration (Mean ± SD) ([3]; Room temperature for 24 h, nominal 251 ng/mL): 244.31 ± 8.62 ng/mL; Measured Concentration (Mean ± SD) ([3]; three freeze-thaw cycles, nominal 2.51 ng/mL): 2.68 ± 0.03 ng/mL; Measured Concentration (Mean ± SD) ([3]; three freeze-thaw cycles, nominal 20.08 ng/mL): 19.43 ± 1.08 ng/mL; Measured Concentration (Mean ± SD) ([3]; three freeze-thaw cycles, nominal 251 ng/mL): 259.84 ± 23.13 ng/mL
5 | COC1(C(=O)O)COc2cc(O[C@@H]3O[C@H](CO)[C@@H](O)[C@H](O)[C@H]3O)ccc2-c2cc(O)c(O)cc2C1 (stereo partly shown) [M4] | Desaturation, Oxidation, Methylation | – | – | – | – | – | – | – | – | – | – | – | – | – | – | – | – | –
